In PMC11578313, “Miniaturized Modular Click Chemistry‐enabled Rapid Discovery of Unique SARS‐CoV‐2 M^pro Inhibitors With Robust Potency and Drug‐like Profile” (Advanced Science, 2024):
Read-outs that look alike come from different tables or passages of the source.

Experiments:
[1] = tested on: SARS‐CoV‐2 S and N proteins; assay type: cell-based
in vitro = conditions: rhesus monkey
[2] = Cytotoxicity assay (MTT) in MRC‐5 cells; conditions: human
[3] = tested on: SARS‐CoV‐2 Delta (hCoV‐19/Korea/KDCA119861/2021); experiment: microbe, parasite or virus in culture; assay type: cell-based; conditions: Severe acute respiratory syndrome coronavirus 2; Calu‐3; read-out: EC50 ± SD, SARS‐CoV‐2 Delta
[4] = tested on: SARS‐CoV‐2 Gamma (hCoV‐19/Korea/KDCA95637/2021); experiment: microbe, parasite or virus in culture; assay type: cell-based; conditions: Severe acute respiratory syndrome coronavirus 2; Calu‐3; read-out: EC50 ± SD, SARS‐CoV‐2 Gamma
SARS‐CoV‐2 M^pro [5] = target: T1, SARS‐CoV‐2 M^pro (Severe acute respiratory syndrome coronavirus 2, UniProt P0DTD1); experiment: biochemical; conditions: reported K M value and Cheng‐Prusoff equation
HCoV‐NL63 = experiment: microbe, parasite or virus in culture; assay type: cell-based; conditions: Human coronavirus NL63, LLC-MK2, read-out: EC50 ± SD, HCoV‐NL63
SARS‐CoV‐2 M^pro [6] = target: T1, SARS‐CoV‐2 M^pro; experiment: SARS‐CoV‐2 main protease enzymatic assay (FRET inhibitor screening kit); assay type: biochemical
HCoV‐229E = experiment: microbe, parasite or virus in culture; assay type: cell-based
[7] = tested on: SARS‐CoV‐2 Omicron (hCoV‐19/Korea/KDCA447321/2021); experiment: microbe, parasite or virus in culture; assay type: cell-based; conditions: Severe acute respiratory syndrome coronavirus 2, Calu-3, read-out: EC50 ± SD, SARS‐CoV‐2 Omicron
[8] = tested on: SARS‐CoV‐2 (hCoV‐19/Korea/KCDC06/2020, wild type); experiment: microbe, parasite or virus in culture; assay type: cell-based
Kunming mice [9] = experiment: Subacute toxicity experiment; assay type: in vivo
Experimental: (§1) The acute and subacute toxicity of C5N17B were assessed in Kunming mice. In the acute toxicity study, one group received an oral dose of 500 mg kg^−1 of C5N17B. In the subacute toxicity study, a different group was administered a lower dose of 50 mg kg^−1 of C5N17B. Each experimental set included a control group that received only the vehicle treatment.
(§2) Kunming mice were group housed both during acclimation and the study period. The animal room environment was controlled to maintain specific target conditions, including a temperature range of 20 °C to 25 °C, relative humidity levels between 40% and 70%, and an alternating schedule of artificial light for 12 h followed by 12 h of darkness. The age of Kunming mice in the acute/subacute toxicity study was 3–4 weeks, and the body weights were ≈20 g. All animal experiments related to this study were approved by the ethics committee of Cheeloo College of Medicine (approval No. 230014), Shandong University (Jinan, China) Procedures performed in the studies were guided by the ethical standards of the institution.
A group of Kunming mice (comprising three males and three females) was supplied by the Animal Experimental Center of Shandong University. The mice underwent a 12 h fasting period, followed by oral administration of a suspension containing C5N17B in 0.5% CMC‐Na and 3% DMSO at the concentration of 100 mg mL^−1 to achieve an acute toxicity dose of 500 mg kg^−1. In the subacute toxicity experiment, the test group received 50 mg kg^−1 of C5N17B orally, with another group serving as a control. The experimental group and control group each consist of six mice, with an equal distribution of three males and three females.

HCoV‐OC43 = experiment: microbe, parasite or virus in culture; assay type: cell-based; conditions: Betacoronavirus 1, MRC5, read-out: EC50 ± SD, HCoV‐OC43
Kunming mice [10] = experiment: Acute toxicity experiment; assay type: in vivo
Experimental: as §1, §2
A group of Kunming mice (comprising three males and three females) was supplied by the Animal Experimental Center of Shandong University. […]

SARS‐CoV‐2 viral RNA = assay type: cell-based
MERS‐CoV = experiment: microbe, parasite or virus in culture; assay type: cell-based
in vivo = conditions: ICR, mouse, po
[11] = 10 mg/kg, p.o. in combination with ritonavir, p.o. 10 mg kg^−1 with 20 mg kg^−1 ritonavir, ICR mice, n = 3
[12] = male, 10 mg/kg, Mean, C5N17B+Ritonavir, PO 10 mg/kg, mean of 3 mice
[13] = male, 10 mg/kg, Plasma concentration (Calculated Concentration), C5N17B+Ritonavir, PO 10 mg/kg, mouse plasma, individual mice
[14] = male, 10 mg/kg, Plasma concentration, Mean, C5N17B+Ritonavir, PO 10 mg/kg, mean of mice 1#-3#

## Cc1cncc(C(=O)N2C[C@H]3CC[C@@H](C2)N3[C@H](c2cccc(F)c2)c2cn(CCc3ccsc3)nn2)c1 [Compound C5N17B]
[1]
  SARS‐CoV‐2 S and N proteins in virus‐infected cells: dose‐dependent reduction
In vitro
  CC50: > 100000 nM
[2]
  CC50 at 5 day: > 100000 nM
  CC50 at 6 day: > 100000 nM
[3]
  EC50: 154 ± 19 nM
[4]
  EC50: 260 ± 13 nM
SARS‐CoV‐2 M^pro [5]
  Ki: 26.6 nM
HCoV‐NL63
  EC50: > 100000 nM
SARS‐CoV‐2 M^pro [6]
  IC50: 120 nM
SARS‐CoV‐2 M^pro [6]; 5 μM, read-out: Inhibitionrate at @5μM
  inhibition at 5 µM: 99.6%
SARS‐CoV‐2 M^pro [6]; IC50 ratio
  fold stronger enzyme inhibitory activity than C5N17A: 27 fold
HCoV‐229E; Human coronavirus 229E, MRC5, read-out: EC50 ± SD, HCoV‐229E
  EC50: > 100000 nM
HCoV‐229E; MRC‐5
  EC50 ± SD, HCoV‐229E: failed to inhibit
[7]
  EC50: 135 ± 3 nM
[8]; Severe acute respiratory syndrome coronavirus 2, Calu-3, Calu‐3, read-out: EC50 ± SD, SARS‐CoV‐2 Wild‐type
  EC50: 119 ± 11 nM
[8]; Severe acute respiratory syndrome coronavirus 2, Calu-3, Calu‐3 cells, racemate, enantiomers and […] measured in the same system, read-out: EC50, anti‐SARS‐CoV‐2 activity in Calu‐3 cells (Figure 3B)
  EC50: 78 nM
Kunming mice [9]; 50 mg kg^−1, 15 days
  body weight compared to the control group, subacute toxicity: no significant changes in body weight
Kunming mice [9]; heart, liver, spleen, lung, kidney, subacute toxicity study
  examination of vital organs, hematoxylin and eosin‐stained slices: no significant pathological abnormalities
Kunming mice [9]; oral 50 mg kg^−1, Kunming mice
  fatalities or abnormal behavior, subacute toxicity: No fatalities or abnormal behavior
HCoV‐OC43
  EC50: 2710 ± 510 nM
Kunming mice [10]; 500 mg kg^−1, 7 days
  body weight compared to the control group, acute toxicity: no significant changes in body weight
Kunming mice [10]; oral dose of 500 mg kg^−1, Kunming mice
  fatalities or abnormal behavior, acute toxicity: No fatalities or abnormal behavior
SARS‐CoV‐2 viral RNA
  reduction in viral RNA: exceeded 3 log orders
SARS‐CoV‐2 viral RNA; 0.041 µM
  decrease in viral RNA copy number compared to 10.0 µM nirmatrelvir: 20 fold
MERS‐CoV
  EC50 ± SD, MERS‐CoV: failed to inhibit
MERS‐CoV; Middle East respiratory syndrome-related coronavirus, Huh-7, read-out: EC50 ± SD, MERS‐CoV
  EC50: > 100000 nM
In vivo; [11]
  Cmax: 2300 ± 162 ng/mL
  Tmax: 2.08 ± 1.88 h
In vivo; 10 mg/kg, MRT0‐t, p.o. in combination with ritonavir, p.o. 10 mg kg^−1 with 20 mg kg^−1 ritonavir, ICR mice, n = 3
  MRT: 3.15 ± 0.456 h
In vivo; 10 mg/kg, MRT0‐∞, p.o. in combination with ritonavir, p.o. 10 mg kg^−1 with 20 mg kg^−1 ritonavir, ICR mice, n = 3
  MRT: 4.88 ± 2.7 h
In vivo; 10 mg/kg, t1/2, p.o. in combination with ritonavir, p.o. 10 mg kg^−1 with 20 mg kg^−1 ritonavir, ICR mice, n = 3
  half-life: 3.14 ± 2.06 h
In vivo; AUC0‐t, p.o. in combination with ritonavir, p.o. 10 mg kg^−1 with 20 mg kg^−1 ritonavir, ICR mice, n = 3
  AUC: 11500 ng·h/mL
In vivo; male, 10 mg/kg, AUC0-t, C5N17B+Ritonavir, PO 10 mg/kg, individual mice 1#-3#
  AUC(0-t): 9690 ng·h/mL
In vivo; male, 10 mg/kg, AUC0-t, Mean, C5N17B+Ritonavir, PO 10 mg/kg, mean of 3 mice
  AUC(0-t): 11500 ng·h/mL
In vivo; male, 10 mg/kg, AUC0-∞, C5N17B+Ritonavir, PO 10 mg/kg, individual mice 1#-3#
  AUC(0-inf): 10400 ng·h/mL
In vivo; male, 10 mg/kg, AUC0-∞, Mean, C5N17B+Ritonavir, PO 10 mg/kg, mean of 3 mice
  AUC(0-inf): 14200 ng·h/mL
In vivo; male, 10 mg/kg, AUCINF_obs, C5N17B+Ritonavir, po 10 mg/kg, non-compartmental output, individual mice
  AUC(0-inf): 10400 ng·h/mL
In vivo; male, 10 mg/kg, AUCINF_pred, C5N17B+Ritonavir, po 10 mg/kg, based on predicted Clast, individual mice
  AUC(0-inf): 10800 ng·h/mL
In vivo; male, 10 mg/kg, AUCall, C5N17B+Ritonavir, po 10 mg/kg, non-compartmental output, individual mice
  AUC: 9690 ng·h/mL
In vivo; male, 10 mg/kg, AUClast, C5N17B+Ritonavir, po 10 mg/kg, non-compartmental output, individual mice
  AUC(0-t): 9690 ng·h/mL
In vivo; male, 10 mg/kg, Cl_F_obs, C5N17B+Ritonavir, po 10 mg/kg, non-compartmental output, individual mice
  CL/F: 16 mL/min/kg
In vivo; male, 10 mg/kg, C5N17B+Ritonavir, PO 10 mg/kg, individual mice 1#-3#
  Cmax: 2270 ng/mL
In vivo; male, 10 mg/kg, C5N17B+Ritonavir, po 10 mg/kg, non-compartmental output, individual mice
  Cmax: 2270 ng/mL
In vivo; [12]
  Cmax: 2300 ng/mL
  Tmax: 2.08 h
In vivo; male, 10 mg/kg, MRT0-t, C5N17B+Ritonavir, PO 10 mg/kg, individual mice 1#-3#
  MRT last: 2.62 h
In vivo; male, 10 mg/kg, MRT0-t, Mean, C5N17B+Ritonavir, PO 10 mg/kg, mean of 3 mice
  MRT last: 3.15 h
In vivo; male, 10 mg/kg, MRT0-∞, Mean, C5N17B+Ritonavir, PO 10 mg/kg, mean of 3 mice
  MRT inf: 4.88 h
In vivo; male, 10 mg/kg, MRTlast, C5N17B+Ritonavir, po 10 mg/kg, non-compartmental output, individual mice
  MRT last: 2.62 h
In vivo; male, 10 mg/kg, Plasma concentration (Calculated Concentration), C5N17B+Ritonavir, PO 10 mg/kg, mouse plasma, 5 min (5min), individual mice
  concentration at 5 min: 680 ng/mL
In vivo; male, 10 mg/kg, Plasma concentration (Calculated Concentration), C5N17B+Ritonavir, PO 10 mg/kg, mouse plasma, 0.5 h (30min), individual mice
  concentration at 0.5 h: 2280 ng/mL
In vivo; [13]
  concentration at 1 h: 2210 ng/mL
  concentration at 2 h: 1910 ng/mL
  concentration at 4 h: 1180 ng/mL
In vivo; male, 10 mg/kg, Plasma concentration, Mean, C5N17B+Ritonavir, PO 10 mg/kg, 5 min, mean of mice 1#-3#
  concentration at 5 min: 660 ng/mL
In vivo; male, 10 mg/kg, Plasma concentration, Mean, C5N17B+Ritonavir, PO 10 mg/kg, 0.50 h, mean of mice 1#-3#
  concentration at 0.5 h: 1740 ng/mL
In vivo; [14]
  concentration at 1 h: 1970 ng/mL
  concentration at 2 h: 2110 ng/mL
  concentration at 4 h: 1750 ng/mL
In vivo; male, 10 mg/kg, Plasma concentration, Mean, C5N17B+Ritonavir, PO 10 mg/kg, 6 h, mean of mice 1#-3#
  concentration at 6 h: 1040 ng/mL
In vivo; male, 10 mg/kg, Plasma concentration, Mean, C5N17B+Ritonavir, PO 10 mg/kg, 8 h, mean (1# BQL)
  concentration at 8 h: 490 ng/mL
In vivo; male, 10 mg/kg, T1/2, Mean, C5N17B+Ritonavir, PO 10 mg/kg, mean of 3 mice
  half-life: 3.14 h
